Reference: ChEMBL document CHEMBL5046242, “Investigation of Janus Kinase (JAK) Inhibitors for Lung Delivery and the Importance of Aldehyde Oxidase Metabolism” (J Med Chem, 2022)
In brackets after ≈: the same amount, converted by molar mass.

Experiments:
[1] = target: Tyrosine-protein kinase JAK1 (Homo sapiens, UniProt P23458); type: cell-based
physchem [2] = details: buffer, pH 7.4
[3] = target: Non-receptor tyrosine-protein kinase TYK2 (Homo sapiens, UniProt P29597); type: cell-based
in vitro = details: PAMPA, pH 7.4
Description: Permeability of the compound at pH 7.4 incubated for 3 hrs by HPLC based artificial membrane permeability assay

Aurora kinase B = Aurora kinase B (Homo sapiens, UniProt Q96GD4)
physchem [4] = details: buffer, pH 6.5
Description: Solubility of the compound in stimulated lung fluid at pH 6.5 measured after 4 hrs by HPLC-UV analysis

Sequence of Tyrosine-protein kinase JAK1 (P23458 whole entry): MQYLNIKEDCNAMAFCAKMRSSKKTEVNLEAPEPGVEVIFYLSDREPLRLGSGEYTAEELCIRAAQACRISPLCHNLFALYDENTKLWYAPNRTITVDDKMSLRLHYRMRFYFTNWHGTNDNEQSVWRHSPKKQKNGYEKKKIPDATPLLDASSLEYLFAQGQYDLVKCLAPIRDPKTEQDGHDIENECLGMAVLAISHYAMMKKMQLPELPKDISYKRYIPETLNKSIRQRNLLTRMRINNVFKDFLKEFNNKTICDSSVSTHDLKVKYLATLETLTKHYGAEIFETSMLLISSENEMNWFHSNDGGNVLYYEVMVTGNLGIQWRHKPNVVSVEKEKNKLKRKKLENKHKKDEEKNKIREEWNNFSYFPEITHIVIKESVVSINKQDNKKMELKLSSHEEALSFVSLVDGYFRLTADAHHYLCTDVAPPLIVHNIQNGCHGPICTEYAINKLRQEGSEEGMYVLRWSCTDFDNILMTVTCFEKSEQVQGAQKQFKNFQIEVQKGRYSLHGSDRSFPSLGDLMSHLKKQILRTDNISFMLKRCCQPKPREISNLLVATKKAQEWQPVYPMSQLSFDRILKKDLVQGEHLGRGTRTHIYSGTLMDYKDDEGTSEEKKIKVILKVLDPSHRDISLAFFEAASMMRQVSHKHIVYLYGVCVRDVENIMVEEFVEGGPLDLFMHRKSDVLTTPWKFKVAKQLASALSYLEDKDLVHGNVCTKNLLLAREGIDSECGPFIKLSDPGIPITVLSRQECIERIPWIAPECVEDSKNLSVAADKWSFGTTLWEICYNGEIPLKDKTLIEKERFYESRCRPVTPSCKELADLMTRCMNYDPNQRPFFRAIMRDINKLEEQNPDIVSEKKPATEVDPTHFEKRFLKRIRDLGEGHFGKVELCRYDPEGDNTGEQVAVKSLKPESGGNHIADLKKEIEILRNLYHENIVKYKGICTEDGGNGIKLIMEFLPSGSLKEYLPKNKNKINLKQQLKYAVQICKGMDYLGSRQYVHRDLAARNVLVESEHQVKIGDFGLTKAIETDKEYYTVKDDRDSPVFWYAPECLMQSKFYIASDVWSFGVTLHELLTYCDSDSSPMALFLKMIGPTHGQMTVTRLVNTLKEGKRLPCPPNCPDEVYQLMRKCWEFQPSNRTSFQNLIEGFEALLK
Sequence of Non-receptor tyrosine-protein kinase TYK2 (P29597 whole entry): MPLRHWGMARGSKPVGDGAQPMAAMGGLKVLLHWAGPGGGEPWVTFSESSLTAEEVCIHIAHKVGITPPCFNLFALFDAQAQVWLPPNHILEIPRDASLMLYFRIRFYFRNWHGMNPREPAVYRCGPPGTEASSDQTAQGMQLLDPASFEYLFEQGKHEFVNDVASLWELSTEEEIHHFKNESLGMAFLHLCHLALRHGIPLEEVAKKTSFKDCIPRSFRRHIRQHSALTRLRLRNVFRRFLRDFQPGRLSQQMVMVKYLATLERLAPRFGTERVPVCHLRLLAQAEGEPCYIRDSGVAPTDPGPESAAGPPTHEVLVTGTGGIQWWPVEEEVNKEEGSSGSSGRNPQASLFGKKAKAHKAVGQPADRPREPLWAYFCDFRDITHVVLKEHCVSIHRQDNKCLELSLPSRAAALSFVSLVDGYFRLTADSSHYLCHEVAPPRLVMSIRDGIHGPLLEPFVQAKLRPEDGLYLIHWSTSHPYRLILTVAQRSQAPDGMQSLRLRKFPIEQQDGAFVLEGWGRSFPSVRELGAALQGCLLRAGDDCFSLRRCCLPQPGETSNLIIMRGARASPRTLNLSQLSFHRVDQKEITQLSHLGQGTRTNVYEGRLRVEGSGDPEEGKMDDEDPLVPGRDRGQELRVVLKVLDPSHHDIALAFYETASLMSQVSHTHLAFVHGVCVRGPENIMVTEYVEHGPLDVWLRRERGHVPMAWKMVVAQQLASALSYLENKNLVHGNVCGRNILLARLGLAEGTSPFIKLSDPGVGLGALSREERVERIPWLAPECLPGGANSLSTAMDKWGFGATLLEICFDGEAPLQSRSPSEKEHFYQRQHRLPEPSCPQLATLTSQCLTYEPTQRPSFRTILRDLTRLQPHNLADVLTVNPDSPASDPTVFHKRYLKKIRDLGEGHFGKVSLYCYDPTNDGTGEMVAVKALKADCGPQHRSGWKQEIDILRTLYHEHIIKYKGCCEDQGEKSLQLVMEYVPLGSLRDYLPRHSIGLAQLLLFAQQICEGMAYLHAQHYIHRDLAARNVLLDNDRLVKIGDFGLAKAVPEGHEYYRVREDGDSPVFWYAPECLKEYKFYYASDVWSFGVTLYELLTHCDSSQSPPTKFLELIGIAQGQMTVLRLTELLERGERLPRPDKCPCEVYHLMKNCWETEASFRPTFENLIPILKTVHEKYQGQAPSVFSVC
Sequence of Aurora kinase B (Q96GD4 whole entry): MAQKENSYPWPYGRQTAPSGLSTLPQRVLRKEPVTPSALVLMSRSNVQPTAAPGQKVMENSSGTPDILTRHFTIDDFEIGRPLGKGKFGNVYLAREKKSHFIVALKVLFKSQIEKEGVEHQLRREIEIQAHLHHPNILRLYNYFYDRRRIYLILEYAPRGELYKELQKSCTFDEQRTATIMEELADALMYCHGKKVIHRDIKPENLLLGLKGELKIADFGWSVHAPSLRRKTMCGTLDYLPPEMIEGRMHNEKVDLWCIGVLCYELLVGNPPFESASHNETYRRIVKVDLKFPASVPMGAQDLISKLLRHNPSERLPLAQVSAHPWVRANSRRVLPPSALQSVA

Row | Compound | IC50 [1] [nM] | solubility kinetic at 1 h (physchem [2]) [µM] | IC50 [3] [nM] | Papp at 3 h (in vitro) [×10⁻⁶ cm/s] | IC50 (Aurora kinase B) [nM] | solubility at 4 h (physchem [4]) [µg/mL]
1 | COc1cccc2cnc(Nc3cnn(C)c3)nc12 | 631 | 539 (≈ 138 µg/mL) | 631 | – | – | –
2 | CC(=O)N1CCC(Oc2cccc3cnc(Nc4cnn(C)c4)nc23)CC1 | 251 | 557 (≈ 204 µg/mL) | 316 | – | – | –
3 | CCc1cc(O)c(F)cc1-c1cc(NCCNC)c2nc(N)ncc2c1 | – | – | – | 1.2 | 12600 | –
4 | CCc1cc(O)c(F)cc1-c1cc(NCCO)c2nc(N)ncc2c1 | – | – | – | 12 | – | 44 (≈ 129 µM)

More lines, in order of falling IC50 [1], values ahead:

Row | IC50 [1] [nM] | solubility kinetic at 1 h (physchem [2]) [µM] | IC50 [3] [nM] | Papp at 3 h (in vitro) [×10⁻⁶ cm/s] | IC50 (Aurora kinase B) [nM] | solubility at 4 h (physchem [4]) [µg/mL] | Compound
5 | 126 | 404 (≈ 148 µg/mL) | – | – | – | – | CC(=O)N1CCC(Nc2cccc3cnc(Nc4cnn(C)c4)nc23)CC1
6 | 79.4 | 523 (≈ 170 µg/mL) | – | – | – | – | Cn1cc(Nc2ncc3cccc(OC4CCNCC4)c3n2)cn1
7 | 0.501 | 11 (≈ 3.82 µg/mL) | – | – | – | – | COc1cc(-c2ccc(O)cc2)cc2cnc(Nc3cnn(C)c3)nc12
